Values quoted from earlier work as cited in patent US12107222B2, “Liquid electrolyte comprising organic carbonates and cyclic sulfoxides for applications in lithium secondary batteries” (Forschungszentrum Juelich GmbH, priority 2018, dated 2024).

Assays:
[1] = tested on: rat; conditions: in vivo
[2] = tested on: rabbit
[3] = tested on: rat
[4] = tested on: rat; remark: listed apart in the source
[5] = tested on: human organism; conditions: classification in words
[6] = tested on: mouse

| SMILES | LD50, rat, oral [1] | LD50, rabbit, dermal [2] | hazard classification [5] | other results |
| --- | --- | --- | --- | --- |
| CC1COC(=O)O1 (stereo not drawn) [Propylene carbonate] | LD50, rat, oral: >5,000 mg/kg | LD50, rabbit, dermal: >2,000 mg/kg^[2] | – | – |
| O=C1OCCO1 [Ethylene carbonate] | – | – | – | LD50, rat, dermal [3]: LD50, rat, dermal: >2,000 mg/kg; LC50, rat, inhalative, 7 h [4]: LC50, rat, inhalative, 7 h: >1.268 mg/L^[12] |
| O=c1occo1 [Vinylene carbonate] | – | – | toxic on contact with the skin | – |
| [O-][S+]1CCCC1 [Tetrahydrothiophene-1-oxide] | – | – | – | LD50, mouse, intraperitoneal [6]: LD50, mouse, intraperitoneal: 3,500 |
| CCC1COC(=O)O1 (stereo not drawn) [1,2-Butylene carbonate] | LD50, rat, oral: >5,000 mg/kg | LD50, rabbit, dermal: >2,000 mg/kg^[13] | – | – |
| O=S1(=O)CCCO1 [1,3-propane sultone] | – | – | carcinogenic and toxic | – |
